Columns and labels:
Assay type in all cases: cell-based, Plasmodium falciparum
[1] = test system: phosphoproteome of Dd2-B2 Pf schizonts; assay: Phosphoproteomics of Dd2-B2 schizonts exposed to 1200 nM MMV030084 for 3 h; details: 1,200 nM, vs untreated
Protocol: Red blood cells were lysed by 0.1% saponin in washing buffer (20 mM β-glycerophosphate, 1 tablet of cOmplete protease inhibitor cocktail (Roche), and 1 tablet of PhosSTOP phosphatase inhibitor (Roche) per 10 ml PBS). Parasites were subsequently washed three times in washing buffer. Parasite pellets were stored at -80°C until all samples from two independently repeated exposure experiments were collected. Proteins were extracted from schizont pellets by sonication and lysis in Tris-EDTA buffer (10 mM Tris-HCl, 5 mM EDTA, 20 mM ß-glycerolphosphate; pH 7.4, 1% NP-40, 2% CHAPS) followed by reduction of disulfide bonds and alkylation. Samples were digested with trypsin at a ratio of 1:15 (w/w) trypsin and proteins concentrated using S-trap columns (ProtiFi) for 1 h at 47°C. For tandem mass tag (TMT) labelling, digested samples were incubated with TMTsixplex reagents (Thermo Scientific). All labeled samples were pooled together, loaded onto an anion-exchange column, and fractionated on an AKTA purifier (GE Healthcare). The fractions were concentrated and phosphopeptides were enriched using titanium dioxide (TiO2) and immobilized metal affinity chromatography (IMAC). […] We also analyzed the peptide sequences for patterns that conformed to the previously established PfPKG consensus motif K/RR/KxpS/pT and the PfPKA consensus motif K/RxxpS/pT ([Francis et al., 2010]).

[2] = test system: AAT cKD line; assay: Compound susceptibility assay using cKD lines (72 h, Renilla luciferase); details: for IC50: Plasmodium falciparum, AAT cKD line
From the text: (§1) To study the interaction between the compounds and PKG (PF3D7_1436600), AAT (PF3D7_1231400), CDPK1 (PF3D7_0217500), TKL3 (PF3D7_1349300), PP1 (PF3D7_1414400), and URP (PF3D7_0808300), cKD lines were generated by fusing the transcripts with RNA aptamers for translation regulation with the TetR/DOZI system ([Ganesan et al., 2016]). The right homology regions (RHR) of each target gene were amplified by PCR, using the primers listed in Table S1 (A), and along with the left homology regions (LHR) were fused to the re-codonized 3'-end region of the gene. Single guide RNA fragments were synthesized using the BioXP™ 3200 System (SGI-DNA; Table S1 (A)) and were cloned into the pSN054 vector ([Nasamu et al., 2019]) to install the C-terminal epitope tags V5 and 2x-hemagglutinin (HA) followed by a 10x RNA aptamer array and the TetR-DOZI expression cassette. This cassette also contained Blasticidin S-deaminase for selection in the parasites and the reporter gene Renilla luciferase (RLuc). The 3'-end of each target was re-codonized to avoid further modifications of the edited locus in the parasite via removal of the PAM site. Donor vector generation was carried out via Gibson assembly, and the final construct sequence was confirmed by restriction digests and Sanger sequencing.
(§2) Transfection into parasites was carried out by preloading erythrocytes with linearized vectors as described previously ([Deitsch et al., 2001]). Briefly, 50 μg of purified plasmid DNA was mixed with human RBC and subjected to 8 square wave electroporation pulses of 365 V for 1 ms each, separated by 0.1 s in a 0.2 cm cuvette. The plasmid DNA preloaded cells were inoculated with NF54 parasites expressing Cas9 and T7 RNA polymerase, maintained in 500 nM anhydrotetracycline (aTc, Sigma-Aldrich 37919), and drug selection with 2.5 μg/mL of Blasticidin (RPI Corp B12150-0.1) was initiated four days after transfection. Emergence of transfectants was monitored via Giemsa smears and RLuc measurements.
(§3) Synchronized ring-stage cKD parasites in varying aTc concentrations (high = 50 nM, intermediate = 1.5 nM, low = 1 nM, and no aTc) were distributed into the drug plate. No-drug treatment and treatment with a lethal dose of chloroquine (200 nM) served as reference controls.

[3] = test system: CDPK1 cKD line; assay: as above; details: for IC50: Plasmodium falciparum, CDPK1 cKD line
From the text: as §1, §2, §3

[4] = test system: PKG cKD line; assay: as above; details: for IC50: Plasmodium falciparum, PKG cKD line
From the text: as §1, §2, §3

[5] = test system: PP1 cKD line; assay: as above; details: Plasmodium falciparum
From the text: as §1, §2, §3

[6] = test system: TKL3 cKD line; assay: as above; details: for IC50: Plasmodium falciparum, TKL3 cKD line
From the text: as §1, §2, §3

[7] = test system: URP cKD line; assay: as above; details: Plasmodium falciparum
From the text: as §1, §2, §3

[8] = test system: Dd2-B2 and ed. Dd2-B2 TKL3KO parasites; assay: In vitro selections for MMV030084 resistance; details: 1 × 10^9 Dd2-B2 TKL3KO parasites, 1,100 nM
Protocol: The resulting MMV030084-resistant parasites were cloned by limiting dilution ([Baker et al., 2017]) to obtain genetically homogenous cultures for further phenotyping and whole-genome sequencing. A second round of […]. […] Drug susceptibility of resistant lines was assessed using a 72 h ABS assay as described above, and a Mann Whitney U test was applied to assess statistically significant differences.

## CC(C)(CN)c1nc(-c2ccc(Cl)c(O)c2)c(-c2ccncc2)[nH]1 [MMV030084]
[1]
  Number of proteins with increased phosphorylation levels: 15
  Number of proteins with phosphorylation status reduced by more than 35%: 16
[2]; Control, [aTc] used 50.0
  IC50: 0.0506 µM
[2]; KD, [aTc] used 0.0
  IC50: 0.0298 µM
[2]; cKD vs control
  Decrease in IC50 under AAT cKD conditions: 1.7 fold
[3]; Control, [aTc] used 50.0
  IC50: 0.0454 µM
[3]; KD, [aTc] used 1.0
  IC50: 0.0415 µM
[3]; cKD vs control
  Change in susceptibility when CDPK1 was knocked down: No change
[4]; Control, [aTc] used 50.0
  IC50: 0.0274 µM
[4]; KD, [aTc] used 1.0
  IC50: 0.0066 µM
[4]; cKD vs control
  Sensitization when PKG was knocked down: 4.2 fold
[5]; Control, [aTc] used 50.0
  IC50: 0.0392 µM
[5]; KD, [aTc] used 1.5
  IC50: 0.057 µM
[6]; Control, [aTc] used 50.0
  IC50: 0.0424 µM
[6]; KD, [aTc] used 0.0
  IC50: 0.0886 µM
[6]; cKD vs isogenic control
  Increase in IC50 induced by TKL3 knockdown: 2.1 fold
[7]; Control, [aTc] used 50.0
  IC50: 0.0359 µM
[7]; KD, [aTc] used 0.0
  IC50: 0.0424 µM
[8]
  Parasite recrudescence under continuous exposure: did not result in parasite recrudescence

— publication PMC7369637, “Inhibition of Resistance-Refractory P. falciparum Kinase PKG Delivers Prophylactic, Blood Stage, and Transmission-Blocking Antiplasmodial Activity” (Cell Chemical Biology, 2020)
